Experimental data published in patent US20210395327A1, “Growth Hormone-Releasing Hormone Antagonists and Uses Thereof” (United States Government As Represented By The Department …, priority 2019, published 2021).
Non-standard residues stand in square brackets, D forms with d. Residues, ends and D or L forms follow the SMILES beside them. *: point of attachment. Phenylacetyl(2,3,4,5,6-F5) = O=C(Cc1c(F)c(F)c(F)c(F)c1F)*; Phe(F5) = N[C@@H](Cc1c(F)c(F)c(F)c(F)c1F)C(=O)O; Phe(4-Cl) = N[C@@H](Cc1ccc(Cl)cc1)C(=O)O; hArg = N=C(N)NCCCC[C@H](N)C(=O)O; 12Ado = NCCCCCCCCCCCC(=O)O; Nle = CCCC[C@H](N)C(=O)O; Abu = CC[C@H](N)C(=O)O

Legend:
[1] = test system: HT-29 colon cancer cells; assay: In vitro cell viability, HT-29; assay type: cell-based, human; conditions: Table 3B; 5 μM for 72 H; MIA-602 = 1
Description: The inhibitory effects of the various synthesized GHRH antagonists were tested in cell proliferation assays in various human cancer cell lines including stomach cancer (KATOIII, N87), colon cancer (HT-29), urothelial cancer (J82, RT4), pancreatic cancer (PANC-1, CFPAC-1), prostatic cancer (PC3), breast cancer (MX-1, HCC1806), ovarian cancer (SK-OV-3, OVCAR-3) and lung cancer (HCC827, H460).
(§1) Cell culture. Human cancer cell lines including pancreatic (PANC-1 and CFPAC-1), lung (HCC827 and H460), stomach (NCI-N87 and KATOIII), urothelial (J82, RT4), prostatic (PC3), breast (MX-1 and HCC 1806), colorectal (HT-29), and ovarian (SK-OV-3 and OVCAR-3) were obtained from the American Type Culture Collection (ATCC) and cultured at 37° C. in a humidified 95% air/5% CO2 atmosphere in the medium recommended by ATCC.
In vitro cell viability. Cell viability was analyzed as follows: cancer cells including pancreatic (PANC-1 and CFPAC-1), lung (HCC827 and H460), stomach (NCI-N87 and KATOIII), urothelial (J82, RT4), prostatic (PC3) and breast (MX-1 and HCC 1806), colorectal (HT-29) and ovarian (SK-OV-3 and OVCAR-3) were grown on 96 well plates to ˜60% confluence, the cells were starved for 24 h in culture medium containing 0.5% FBS. Cells were then treated with GHRH antagonists MIA602 AVR compounds at concentrations of 1, 2.5 or 5 μM, or vehicle (0.1% DMSO) in quintuplicates for 72 hours. The medium was replaced every 48 hours. Cell viability was measured using CellTiter 96 aqueous one solution kit (Promega). Inhibitory effects of tested AVR compounds in comparison to that of MIA602 are presented as inhibitory potency.
Inhibitory effects of selected AVR compounds in comparison to that of MIA602 are presented as inhibitory potency (e.g., percentage of inhibition). […] The cell lines tested including lung cancer HCC827 (FIG. 2A), pancreatic cancer CFPAC-1 (FIG. 2B), stomach cancer N87 (FIG. 2C), colon cancer HT-29 (FIG. 2D), breast cancers MX-1 and HCC1806 (FIGS. 2 E, F). Based on the results of cell proliferation assay after cancer cells were treated with antagonist at concentration of 5 μM for 72H, the relative inhibitory potency of AVR antagonists in comparison to MIA-602 is summarized in Table 3 A and B. Over 60 AVR compounds were tested in 12 cancer cell lines.
Based on the results of cell proliferation assay after cancer cells were treated with antagonist at concentration of 5 µM for 72H, * at concentration of 2 µM for 72 H.

[2] = test system: CFPAC-1 pancreatic cancer cells; assay: In vitro cell viability, CFPAC-1; assay type: cell-based, human; conditions: for In vitro relative inhibitory potency in comparison to MIA-602, CFPAC-1: Table 3B, 5 μM for 72 H, MIA-602 = 1
Method in brief: (§2)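 Potency is reported as percent inhibition of viability compared with the reference antagonist MIA602, measured with CellTiter 96 aqueous one solution reagent. Serum-starved cells (0.5% FBS, 24 h) were treated for 72 h, mostly at 5 μM, otherwise 2 μM.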

[3] = test system: stomach cancer N87 xenograft; assay: Xenograft tumor growth in nude mice, N87; assay type: in vivo; conditions: 2 μg/day s.c.; for % Inhibition: vs control
Description: The peptides' activity was compared with GHRH antagonist MIA-602. All statistical analyzses were performed from comparing GHRA antagonists to non-treated tumor (control).
Peptides and chemicals. GHRH antagonists MIA-602 and AVR-GHRH antagonists (see Table 2 above) were synthesized by solid phase methods and purified by HPLC. The peptides were dissolved in DMSO and further diluted in 10% 1,2-propanediol. The final concentration of peptides was 50 µg/ml in 10% 1,2-propanediol containing 0.1% of DMSO.
as §1, with “(NCI-N87), prostate” for “(NCI-N87 and KATOIII), urothelial (J82, RT4), prostatic”, “brest” for “breast”, “HCC-1806),” for “HCC 1806),”
Xenograft models of human cancers in nude mice. Female athymic (NCr nu/nu) nude mice, 5- to 6-weeks-old, obtained from the Envigo labs (Tampa, Fla.), were housed in laminar airflow cabinets under pathogen-free conditions with a 12-h light/12-h dark schedule, and were fed autoclaved standard chow and water. To generate mice with xenografted tumors, tumor xenografts were initiated by subcutaneous (s.c.) injection of 107 human cancer cells into female nude mice. After about 4 weeks the resulting tumors were dissected and collected after removing necrosis tissues. The tumors were then cut into particles with size of 3 mm3 and transplanted s.c. by trocar needle into experimental animals. When tumors grew to the size of 50-60 mm3 (by volume), […] of 5 μg of GHRH antagonists MIA-602 or AVR-compounds (2-10 μg as indicated), or vehicle solutions (0.1% DMSO in 10% 1,2-propanediol) respectively. Tumor sizes were measured weekly.
Statistical analysis. One-way ANOVA followed by Bonferroni comparison were performed. Data are expressed as Mean±SEM. To determine statistical significance between animal groups, two-tailed Student's t-test was conducted. Differences were considered significant when p<0.05.
Results. […] FIG. 1A-N represents in vivo inhibition of tumor growth during the treatment with GHRH antagonist MIA-602 and selected AVR antagonists in nude mice xenografted with various human tumors including pancreatic cancer PANC-1 (FIG. 1A) and CFPAC-1 (FIG. 1I); lung cancer HCC827 (FIGS. 1B, C) and H460 (FIG. 1H); stomach cancer N87 (FIGS. 1D-F); colon cancer HT-29 (FIG. 1G); breast cancer MX-1 and HCC-1806 (FIGS. 1J, K); ovarian cancer SK-OV-3 and OVACAR-3 (FIGS. 1 L, M) and prostate cancer PC3 (FIG. 1N). See also Table 5.

[4] = test system: NCI-N87 stomach cancer cells; assay: In vitro cell viability (CellTiter 96), N87; assay type: cell-based, human; conditions: for In vitro relative inhibitory potency in comparison to MIA-602, NCI-N87: Table 3B, 5 μM for 72 H, MIA-602 = 1
Method in brief: as §2

[5] = test system: HCC827 lung cancer cells; assay: In vitro cell viability, HCC827; assay type: cell-based, human; conditions: for In vitro relative inhibitory potency in comparison to MIA-602, HCC827: Table 3B, 5 μM for 72 H, MIA-602 = 1
Method in brief: as §2

[6] = antagonist 5 μM for 72 h, cell proliferation assay, MIA602 = 1
[7] = Table 4D, Stomach Ca N87, 10 weeks
[8] = Table 4F, Stomach Ca N87, 4 weeks

Row | Structure (SMILES) | In vitro relative inhibitory potency in comparison to MIA-602, HT-29 [1] | In vitro relative inhibitory potency in comparison to MIA-602, CFPAC-1 [2] | relative inhibitory potency in comparison to MIA-602, Pancreatic CFPAC-1 [2, 6] | Tumor Size (mm^3) [3, 7] [mm^3] | % Inhibition [3, 7] [%] | Tumor Growth % [3, 8] [%] | % Inhibition [3, 8] [%] | In vitro relative inhibitory potency in comparison to MIA-602, NCI-N87 [4] | relative inhibitory potency in comparison to MIA-602, Stomach N87 [4, 6] | In vitro relative inhibitory potency in comparison to MIA-602, HCC827 [5] | relative inhibitory potency in comparison to MIA-602, Lung IICC827 [5, 6]
1 | CCCC[C@H](NC(=O)[C@@H](NC(=O)[C@H](CC(=O)O)NC(=O)[C@H](CCC(N)=O)NC(=O)[C@H](CC(C)C)NC(=O)[C@H](CC(C)C)NC(=O)[C@H](CCCCN)NC(=O)[C@H](CCCNC(=N)N)NC(=O)[C@H](C)NC(=O)[C@H](CO)NC(=O)[C@H](CC(C)C)NC(=O)[C@H](CCC(N)=O)NC(=O)[C@H](CC)NC(=O)[C@H](CC(C)C)NC(=O)[C@@H](NC(=O)[C@H](CCCCN)NC(=O)[C@H](CCCNC(=N)N)NC(=O)[C@H](Cc1ccc(OC)cc1)NC(=O)[C@H](CCCCNC(=N)N)NC(=O)[C@H](C)NC(=O)[C@@H](NC(=O)[C@H](Cc1c(F)c(F)c(F)c(F)c1F)NC(=O)[C@@H](NC(=O)[C@H](C)NC(=O)[C@H](CC(=O)O)NC(=O)[C@@H](CCCNC(=N)N)NC(=O)[C@H](Cc1ccc(O)cc1)NC(=O)CCCCCCCCCCCNC(=O)Cc1c(F)c(F)c(F)c(F)c1F)[C@@H](C)CC)[C@@H](C)O)C(C)C)[C@@H](C)CC)C(=O)N[C@H](CCCNC(=N)N)C(=O)N[C@@H](CCCCNC(=N)N)C(=O)NC [AVR-235] ({Phenylacetyl(2,3,4,5,6-F5)-12Ado}-Y[dR]DAI[Phe(F5)]TA[hArg]Y(Me)RKVL[Abu]QLSARKLLQDI[Nle][dR][hArg]-NHMe) | 0.968 | 1.497 | 1.399 | 558.60 | 54.4 | 312.80 | 64.9 | 1.67 | 2.911 | 1.08 | 1.506
2 | CCCC[C@H](NC(=O)[C@@H](NC(=O)[C@H](CC(=O)O)NC(=O)[C@H](CCC(N)=O)NC(=O)[C@H](CC(C)C)NC(=O)[C@H](CC(C)C)NC(=O)[C@H](CCCCN)NC(=O)[C@H](CCCNC(=N)N)NC(=O)[C@H](C)NC(=O)[C@H](CO)NC(=O)[C@H](CC(C)C)NC(=O)[C@H](CCC(N)=O)NC(=O)[C@H](CC)NC(=O)[C@H](CC(C)C)NC(=O)[C@@H](NC(=O)[C@H](CCCCN)NC(=O)[C@H](CCCNC(=N)N)NC(=O)[C@H](Cc1c(F)c(F)c(F)c(F)c1F)NC(=O)[C@H](CCCCNC(=N)N)NC(=O)[C@H](C)NC(=O)[C@@H](NC(=O)[C@H](Cc1ccc(Cl)cc1)NC(=O)[C@@H](NC(=O)[C@H](C)NC(=O)[C@H](CC(=O)O)NC(=O)[C@@H](CCCNC(=N)N)NC(=O)[C@H](Cc1ccc(O)cc1)NC(=O)CCCCCCCCCCCNC(=O)Cc1c(F)c(F)c(F)c(F)c1F)[C@@H](C)CC)[C@@H](C)O)C(C)C)[C@@H](C)CC)C(=O)N[C@H](CCCNC(=N)N)C(=O)N[C@@H](CCCCNC(=N)N)C(=O)NCCCCCCCCCCCC(=O)NC [AVR-354] ({Phenylacetyl(2,3,4,5,6-F5)-12Ado}-Y[dR]DAI[Phe(4-Cl)]TA[hArg][Phe(F5)]RKVL[Abu]QLSARKLLQDI[Nle][dR][hArg][12Ado]-NHMe) | 1.403 | 1.67 | – | – | – | – | – | – | – | 2.595 | –
3 | CCCC[C@H](NC(=O)[C@@H](NC(=O)[C@H](CC(=O)O)NC(=O)[C@H](CCC(N)=O)NC(=O)[C@H](CC(C)C)NC(=O)[C@H](CC(C)C)NC(=O)[C@H](CCCCN)NC(=O)[C@H](CCCNC(=N)N)NC(=O)[C@H](C)NC(=O)[C@H](CO)NC(=O)[C@H](CC(C)C)NC(=O)[C@H](CCC(N)=O)NC(=O)[C@H](CC)NC(=O)[C@H](CC(C)C)NC(=O)[C@@H](NC(=O)[C@H](CCCCN)NC(=O)[C@H](CCCNC(=N)N)NC(=O)[C@H](Cc1ccc(OC)cc1)NC(=O)[C@H](CCCCNC(=N)N)NC(=O)[C@H](C)NC(=O)[C@@H](NC(=O)[C@H](Cc1c(F)c(F)c(F)c(F)c1F)NC(=O)[C@@H](NC(=O)[C@H](C)NC(=O)[C@H](CC(=O)O)NC(=O)[C@@H](CCCNC(=N)N)NC(=O)[C@H](Cc1ccc(O)cc1)NC(=O)CCCCCCCCCCCNC(=O)Cc1c(F)c(F)c(F)c(F)c1F)[C@@H](C)CC)[C@@H](C)O)C(C)C)[C@@H](C)CC)C(=O)N[C@H](CCCNC(=N)N)C(=O)N[C@@H](CCCCNC(=N)N)C(=O)NCCCCCCCCCCCC(N)=O [AVR-352, 5FPhAC-Ada-Tyr-DArg-Asp-Ala-Ile-5FPhe-Thr-Ala-Har-Tyr(Me)-Arg-Lys-Val-Leu-Abu-Gln-Leu-Ser-Ala-Arg-Lys-Leu-Leu-Gln-Asp-Ile-Nle-DArg-Har-Ada-NH2] ({Phenylacetyl(2,3,4,5,6-F5)-12Ado}-Y[dR]DAI[Phe(F5)]TA[hArg]Y(Me)RKVL[Abu]QLSARKLLQDI[Nle][dR][hArg][12Ado]-NH2) | 1.197 | 1.576 | – | – | – | – | – | 1.809 | – | 2.01 | –
